The target of assay [1] is T1, NS3-NS4 (Hepatitis C virus genotype 1a, UniProt P27958). The assay can be described thus: cell-based. Particulars: EC50, NS3-NS4 activity.
The target in assay [2] is T1, NS3-NS4. The assay can be described thus: NS3-NS4 activity, IC50 (Example 37, Table 8). The format is biochemical.

By EC50 is commonly meant the concentration giving half of the maximal effect. The low end stands for greater potency, the high end for weaker potency. The IC50 is the midpoint of a concentration-inhibition curve. A low value points to greater potency in that assay.

T1 sequence (P27958 1027-1657): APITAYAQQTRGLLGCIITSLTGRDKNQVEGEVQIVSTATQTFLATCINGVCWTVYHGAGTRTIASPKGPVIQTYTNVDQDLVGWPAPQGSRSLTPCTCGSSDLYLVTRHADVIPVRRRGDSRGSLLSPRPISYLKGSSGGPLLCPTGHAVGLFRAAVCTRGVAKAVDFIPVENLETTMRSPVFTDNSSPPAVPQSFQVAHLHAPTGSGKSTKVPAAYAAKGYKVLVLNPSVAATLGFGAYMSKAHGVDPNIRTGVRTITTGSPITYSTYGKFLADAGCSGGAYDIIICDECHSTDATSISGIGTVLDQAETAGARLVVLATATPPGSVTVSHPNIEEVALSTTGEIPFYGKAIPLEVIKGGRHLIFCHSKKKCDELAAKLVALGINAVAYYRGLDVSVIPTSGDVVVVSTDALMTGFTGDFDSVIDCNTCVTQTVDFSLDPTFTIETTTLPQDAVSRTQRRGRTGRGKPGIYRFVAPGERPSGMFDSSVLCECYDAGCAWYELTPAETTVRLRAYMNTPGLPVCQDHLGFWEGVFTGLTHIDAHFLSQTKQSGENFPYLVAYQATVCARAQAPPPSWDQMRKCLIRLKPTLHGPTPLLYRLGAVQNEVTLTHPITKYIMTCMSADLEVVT
T1 sequence (P27958 1658-1711): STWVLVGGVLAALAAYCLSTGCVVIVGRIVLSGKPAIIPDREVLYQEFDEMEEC

Consider `CC(C)(C)OC(=O)N[C@H]1CCCCC/C=C\[C@@H]2C[C@@]2(C(=O)NS(=O)(=O)Cc2cc(F)ccc2F)NC(=O)[C@@H]2C[C@@H](OC(=O)N3Cc4cccc(F)c4C3)CN2C1=O` [Compound 520], for which the EC50 in assay [1] is less than 100 nM. The compound also came in with an IC50 in assay [2] of less than 100 nM.
With `CC(C)(C)OC(=O)N[C@H]1CCCCC/C=C\[C@@H]2C[C@@]2(C(=O)NS(=O)(=O)c2ccc(F)cc2)NC(=O)[C@@H]2C[C@@H](OC(=O)N3Cc4cccc(F)c4C3)CN2C1=O` [Compound 351], the concentration for a half-maximal effect (EC50) in assay [1] was less than 100 nM. Also, in assay [2], the IC50 was less than 100 nM.
`O=C(N[C@H]1CCCCC/C=C\[C@@H]2C[C@@]2(C(=O)NS(=O)(=O)C2CC2)NC(=O)[C@@H]2C[C@@H](OC(=O)N3Cc4cccc(F)c4C3)CN2C1=O)OC1(C2CC2)CC1` [Compound 446]: the 50% effective concentration (EC50) in assay [1] was less than 100 nM. In assay [2], this compound had an IC50 of less than 100 nM.
In assay [1], `Cc1cccc(ONC(=O)[C@@]23C[C@H]2CCCCCCC[C@H](NC(=O)OC(C)(C)C)C(=O)N2C[C@H](OC(=O)N4Cc5cccc(F)c5C4)C[C@H]2C(=O)N3)c1` [Compound 805] registered an EC50 of 1000 to 10000 nM. Moreover, in assay [2], the half-inhibitory concentration (IC50) is less than 100 nM.
`CC(C)(C)OC(=O)N[C@H]1CCCCC/C=C\[C@@H]2C[C@@]2(C(=O)NS(=O)(=O)c2ccc(Cl)s2)NC(=O)[C@@H]2C[C@@H](OC(=O)N3Cc4cccc(F)c4C3)CN2C1=O` [Compound 323] showed a half-maximal effective concentration (EC50) in assay [1] of less than 100 nM.
In the case of `Cc1ccccc1S(=O)(=O)NC(=O)[C@@]12C[C@H]1CCCCCCC[C@H](NC(=O)OC(C)(C)C)C(=O)N1C[C@H](OC(=O)N3Cc4cccc(F)c4C3)C[C@H]1C(=O)N2` [Compound 602], in assay [1], the EC50 was less than 100 nM. In addition, in assay [2], the IC50 was less than 100 nM.
As to `CC(C)COC(=O)N[C@H]1CCCCC/C=C\[C@@H]2C[C@@]2(C(=O)NS(=O)(=O)C2CC2)NC(=O)[C@@H]2C[C@@H](OC(=O)N3Cc4cccc(F)c4C3)CN2C1=O` [Compound 436], the concentration for a half-maximal effect (EC50) in assay [1] is less than 100 nM. In addition, the concentration for half-maximal inhibition (IC50) in assay [2] was less than 100 nM.
Consider `Cc1ccc(S(=O)(=O)NC(=O)[C@@]23C[C@H]2/C=C\CCCCC[C@H](NC(=O)OC(C)(C)C)C(=O)N2C[C@H](OC(=O)N4Cc5cccc(F)c5C4)C[C@H]2C(=O)N3)o1` [Compound 533], for which the half-maximal effective concentration (EC50) in assay [1] was less than 100 nM. The compound also yielded a half-maximal inhibitory concentration (IC50) in assay [2] of less than 100 nM.
`CC(C)(C)ONC(=O)[C@@]12C[C@H]1/C=C\CCCCC[C@H](NC(=O)OC(C)(C)C)C(=O)N1C[C@H](OC(=O)N3Cc4cccc(Cl)c4C3)C[C@H]1C(=O)N2` [Compound 108] displayed an EC50 in assay [1] of less than 100 nM. The same compound gave an IC50 in assay [2] of less than 100 nM.
On to `O=C1N[C@]2(C(=O)NS(=O)(=O)C3CC3)C[C@H]2/C=C\CCCCC[C@H](Nc2nc(-c3nc4ccccc4s3)cs2)C(=O)N2C[C@H](OC(=O)N3Cc4cccc(F)c4C3)C[C@@H]12` [Compound 217], for which, in assay [1], the 50% effective concentration (EC50) was less than 100 nM. Besides, the 50% inhibitory concentration (IC50) in assay [2] is less than 100 nM.
`C[C@H](O)CONC(=O)[C@@]12C[C@H]1/C=C\CCCCC[C@H](NC(=O)OC(C)(C)C)C(=O)N1C[C@H](OC(=O)N3Cc4cccc(F)c4C3)C[C@H]1C(=O)N2` [Compound 110] yielded a 50% effective concentration (EC50) in assay [1] of less than 100 nM. In addition, the half-maximal inhibitory concentration (IC50) in assay [2] was less than 100 nM.
On to `CC(C)(C)COC(=O)N[C@H]1CCCCC/C=C\[C@@H]2C[C@@]2(C(=O)NS(=O)(=O)c2cc(Cl)sc2Cl)NC(=O)[C@@H]2C[C@@H](OC(=O)N3Cc4cccc(F)c4C3)CN2C1=O` [Compound 343], for which the EC50 in assay [1] is less than 100 nM. In assay [2], this compound had an IC50 of less than 100 nM.
`COc1cc(CS(=O)(=O)NC(=O)[C@@]23C[C@H]2CCCCCCC[C@H](NC(=O)OC(C)(C)C)C(=O)N2C[C@H](OC(=O)N4Cc5cccc(F)c5C4)C[C@H]2C(=O)N3)cc(OC)c1` [Compound 632] yielded an EC50 in assay [1] of 100 to 1000 nM. The half-maximal inhibitory concentration (IC50) in assay [2] was less than 100 nM.
In the same order, the values of `CC(C)(C)OC(=O)N[C@H]1CCCCC/C=C\[C@@H]2C[C@@]2(C(=O)NS(=O)(=O)c2ccccc2)NC(=O)[C@@H]2C[C@@H](OC(=O)N3Cc4cccc(F)c4C3)CN2C1=O` [Compound 501] are less than 100 nM and less than 100 nM.
The like results for `C=CCC1(S(=O)(=O)NC(=O)[C@@]23C[C@H]2/C=C\CCCCC[C@H](NC(=O)OC(C)(C)C)C(=O)N2C[C@H](OC(=O)N4Cc5cccc(F)c5C4)C[C@H]2C(=O)N3)CC1` [Compound 543] were, in that order, less than 100 nM and less than 100 nM.
The like results for `CC(C)(C)OC(=O)N[C@H]1CCCCC/C=C\[C@@H]2C[C@@]2(C(=O)NOc2cccc(C(F)(F)F)c2)NC(=O)[C@@H]2C[C@@H](OC(=O)N3Cc4cccc(F)c4C3)CN2C1=O` [Compound 709] were, in that order, 1000 to 10000 nM and less than 100 nM.
`Cc1ccc(ONC(=O)[C@@]23C[C@H]2CCCCCCC[C@H](NC(=O)OC(C)(C)C)C(=O)N2C[C@H](OC(=O)N4Cc5cccc(F)c5C4)C[C@H]2C(=O)N3)cc1C` [Compound 802] showed an EC50 in assay [1] of 1000 to 10000 nM. Further, in assay [2], the concentration for half-maximal inhibition (IC50) is less than 100 nM.
The like results for `CC(=O)O[C@@H]1C[C@H]2C(=O)N[C@]3(C(=O)NS(=O)(=O)C4CC4)C[C@H]3/C=C\CCCCC[C@H](Nc3nc(-c4ccc(F)cc4)cs3)C(=O)N2C1` [Compound 233] were, in that order, 100 to 1000 nM and less than 100 nM.
In the same order, the values of `O=C1N[C@]2(C(=O)NS(=O)(=O)C3CC3)C[C@H]2/C=C\CCCCC[C@H](NC(=O)N2CCC2)C(=O)N2C[C@H](OC(=O)N3Cc4cccc(F)c4C3)C[C@@H]12` [Compound 417] are less than 100 nM and less than 100 nM.
As to `CS(=O)(=O)c1ccc(-c2csc(N[C@H]3CCCCC/C=C\[C@@H]4C[C@@]4(C(=O)NS(=O)(=O)C4CC4)NC(=O)[C@@H]4C[C@@H](OC(=O)N5Cc6cccc(F)c6C5)CN4C3=O)n2)cc1` [Compound 213], the EC50 in assay [1] is less than 100 nM. The concentration for half-maximal inhibition (IC50) in assay [2] was less than 100 nM.
As for `CC(C)(C)OC(=O)N[C@H]1CCCCCCC[C@@H]2C[C@@]2(C(=O)NOc2cccc(F)c2)NC(=O)[C@@H]2C[C@@H](OC(=O)N3Cc4cccc(F)c4C3)CN2C1=O` [Compound 810], in assay [1], the concentration for a half-maximal effect (EC50) fell in the range of 1000 to 10000 nM. Also, in assay [2], the IC50 is less than 100 nM.
In turn, `CCC1(OC(=O)N[C@H]2CCCCC/C=C\[C@@H]3C[C@@]3(C(=O)NS(=O)(=O)C3CC3)NC(=O)[C@@H]3C[C@@H](OC(=O)N4Cc5cccc(F)c5C4)CN3C2=O)CC1` [Compound 442] showed an EC50 in assay [1] of less than 100 nM. In addition, the half-inhibitory concentration (IC50) in assay [2] was less than 100 nM.
In the case of `COCC1(S(=O)(=O)NC(=O)[C@@]23C[C@H]2CCCCCCC[C@H](NC(=O)OC(C)(C)C)C(=O)N2C[C@H](OC(=O)N4Cc5cccc(F)c5C4)C[C@H]2C(=O)N3)CC1` [Compound 652], the EC50 in assay [1] was less than 100 nM. The IC50 in assay [2] is less than 100 nM.
In assay [1], `CC(C)(C)OC(=O)N[C@H]1CCCCC/C=C\[C@@H]2C[C@@]2(C(=O)NS(=O)(=O)Cc2cc(C(F)(F)F)cc(C(F)(F)F)c2)NC(=O)[C@@H]2C[C@@H](OC(=O)N3Cc4cccc(F)c4C3)CN2C1=O` [Compound 528] came in with an EC50 of 10000 to 50000 nM. Moreover, the IC50 in assay [2] is less than 100 nM.
The like results for `CC(C)(C)OC(=O)N[C@H]1CCCCC/C=C\[C@@H]2C[C@@]2(C(=O)NS(=O)(=O)c2c(F)cccc2F)NC(=O)[C@@H]2C[C@@H](OC(=O)N3Cc4cccc(F)c4C3)CN2C1=O` [Compound 306] were, in that order, 100 to 1000 nM and less than 100 nM.
In assay [1], `CC(C)(C)OC(=O)N[C@H]1CCCCC/C=C\[C@@H]2C[C@@]2(C(=O)NOCC2CC2)NC(=O)[C@@H]2C[C@@H](OC(=O)N3Cc4cccc(F)c4C3)CN2C1=O` [Compound 102, (2R,6S,13aS,14aR,16aS,Z)-6-(tert-butoxycarbonylamino)-14a-(cyclopropylmethoxycarbamoyl)-5,16-dioxo-1,2,3,5,6,7,8,9,10,11,13a,14,14a,15,16,16a-hexadecahydrocyclopropa[e]pyrrolo[1,2-a][1,4]diazacyclopentadecin-2-yl 4-fluoroisoindoline-2-carboxylate] yielded an EC50 of less than 100 nM.
`CC(C)(C)ONC(=O)[C@@]12C[C@H]1/C=C\CCCCC[C@H](NC(=O)OC(C)(C)C)C(=O)N1C[C@H](OC(=O)N3Cc4cccc(F)c4C3)C[C@H]1C(=O)N2` [Compound 103, (2R,6S,13aS,14aR,16aS,Z)-14a-(tert-butoxycarbamoyl)-6-(tert-butoxycarbonylamino)-5,16-dioxo-1,2,3,5,6,7,8,9,10,11,13a,14,14a,15,16,16a-hexadecahydrocyclopropa[e]pyrrolo[1,2-a][1,4]diazacyclopentadecin-2-yl 4-fluoroisoindoline-2-carboxylate] returned an EC50 in assay [1] of less than 100 nM.
`CCC(C)(C)OC(=O)N[C@H]1CCCCC/C=C\[C@@H]2C[C@@]2(C(=O)NS(=O)(=O)C2CC2)NC(=O)[C@@H]2C[C@@H](OC(=O)N3Cc4cccc(F)c4C3)CN2C1=O` [Compound 438]: the half-maximal effective concentration (EC50) in assay [1] lay within 100 to 1000 nM.
On to `CC(C)(C)OC(=O)N[C@H]1CCCCCCC[C@@H]2C[C@@]2(C(=O)NS(=O)(=O)c2cccnc2Cl)NC(=O)[C@@H]2C[C@@H](OC(=O)N3Cc4cccc(F)c4C3)CN2C1=O` [Compound 635], for which the 50% inhibitory concentration (IC50) in assay [2] was less than 100 nM.
The compound `CC(C)(C)OC(=O)N[C@H]1CCCCC/C=C\[C@@H]2C[C@@]2(C(=O)NOc2ccc(F)cc2)NC(=O)[C@@H]2C[C@@H](OC(=O)N3Cc4cccc(F)c4C3)CN2C1=O` [Compound 705] gave a 50% inhibitory concentration (IC50) in assay [2] of less than 100 nM.
Still for that read-out and setting: to `CC(C)(C)OC(=O)N[C@H]1CCCCCCC[C@@H]2C[C@@]2(C(=O)NS(=O)(=O)Cc2ccc(Cl)c(Cl)c2)NC(=O)[C@@H]2C[C@@H](OC(=O)N3Cc4cccc(F)c4C3)CN2C1=O` [Compound 627] belongs less than 100 nM; to `Cc1ccc(CS(=O)(=O)NC(=O)[C@@]23C[C@H]2CCCCCCC[C@H](NC(=O)OC(C)(C)C)C(=O)N2C[C@H](OC(=O)N4Cc5cccc(F)c5C4)C[C@H]2C(=O)N3)cc1` [Compound 615], less than 100 nM.
On the same count and under the same terms, the result for `COc1cccc(CS(=O)(=O)NC(=O)[C@@]23C[C@H]2/C=C\CCCCC[C@H](NC(=O)OC(C)(C)C)C(=O)N2C[C@H](OC(=O)N4Cc5cccc(F)c5C4)C[C@H]2C(=O)N3)c1` [Compound 516] reads less than 100 nM.
As for `CCC(C)(C)OC(=O)N[C@H]1CCCCC/C=C\[C@@H]2C[C@@]2(C(=O)NS(=O)(=O)C2CC2)NC(=O)[C@@H]2C[C@@H](OC(=O)N3Cc4cccc(F)c4C3)CN2C1=O` [Compound 431], the EC50 in assay [1] is less than 100 nM.
On to `Cc1ccccc1ONC(=O)[C@@]12C[C@H]1CCCCCCC[C@H](NC(=O)OC(C)(C)C)C(=O)N1C[C@H](OC(=O)N3Cc4cccc(F)c4C3)C[C@H]1C(=O)N2` [Compound 804], for which the IC50 in assay [2] is less than 100 nM.

These data come from US20090155209A1, “NOVEL MACROCYCLIC INHIBITORS OF HEPATITIS C VIRUS REPLICATION” (priority 2007, published 2009).
